# Source: patent publication US9757316B2, “Zinc-lysine complex” (Colgate-Palmolive Company, priority 2012, dated 2017)
# Legend:
# [1] = Hydrolysis reaction: pH and turbidity of diluted ZLC solutions before and after aging; assay type: physicochemical; conditions: for pH after aging / turbidity after aging (NTU): aged in 37° C. oven over 5 hours; for initial pH / initial turbidity (NTU): before aging; for initial turbidity (NTU): nephelometer
# Protocol: Hydrolysis reaction: A 185 mg/ml ZLC solution is prepared and diluted several-fold and aged in a 37° C. oven over 5 hours for turbidity studies. […] Turbidity of the solutions is measured using a nephelometer, results being given in nephelometric turbidity units (NTU).
# The precipitates formed in the 8×, 16× and 32× diluted solutions are collected by centrifugation and identified as crystalline ZnO by PXRD. From the supernatant, a single crystal is grown and shown by X-ray diffraction to be Lysine Monohydrochloride Dihydrate (LysineHCl·2H2O).
# The mechanism of the ZLC hydrolysis reaction can be expressed as [Zn(Lysine)2Cl]^+Cl^−·2H2O+H2O→ZnO+Lysine·HCl·2H2O
# [2] = target: Bovine Serum Albumin (BSA) (Bos taurus, UniProt P02769); experiment: Flocculation: interaction of ZLC with BSA solutions (turbidity, pH, observation); assay type: physicochemical; conditions: for Turbidity (NTU) / observation / pH: ZLC about 15 mg/ml, 5 hours at 37° C.
# Sequence of Bovine Serum Albumin (BSA) (P02769 25-607): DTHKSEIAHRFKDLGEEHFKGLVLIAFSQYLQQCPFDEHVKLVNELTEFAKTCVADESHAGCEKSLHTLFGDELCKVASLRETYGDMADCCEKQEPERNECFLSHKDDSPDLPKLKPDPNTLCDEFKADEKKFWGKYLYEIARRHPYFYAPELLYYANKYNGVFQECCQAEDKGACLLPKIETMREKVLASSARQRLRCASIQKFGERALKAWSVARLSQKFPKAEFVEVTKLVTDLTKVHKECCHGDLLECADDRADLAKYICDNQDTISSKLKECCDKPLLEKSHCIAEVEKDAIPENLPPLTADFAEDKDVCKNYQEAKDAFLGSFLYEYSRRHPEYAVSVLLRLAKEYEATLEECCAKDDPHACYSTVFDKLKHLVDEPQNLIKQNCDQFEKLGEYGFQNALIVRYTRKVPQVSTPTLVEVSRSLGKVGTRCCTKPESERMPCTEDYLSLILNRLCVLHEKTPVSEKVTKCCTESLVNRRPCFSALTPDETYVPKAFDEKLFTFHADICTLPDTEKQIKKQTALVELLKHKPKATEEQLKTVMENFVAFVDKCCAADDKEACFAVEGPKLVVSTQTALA
# Protocol: Turbidity and pH of solutions are measured 5 hours after the mixtures were placed in a 37° C. oven, and the results are shown in Table 3.
# [3] = sample 1: DI water, 0% BSA, initial pH 6.4
# [4] = sample 2: 1% BSA, initial pH 7.2
# [5] = sample 3: 1% BSA, pH adjusted to 5.1
smiles,measurement,setting,value
"NCCCCC(N)C(=O)O.NCCCCC(N)C(=O)O.O.O.[Cl-].[Cl-].[Zn+2] (centres unmarked) [ZLC, [Zn(C6H14N2O2)2Cl]^+Cl^−]",pH after aging,[1]; 5.78 mg/ml ZLC solution,8
same,turbidity after aging (NTU),[1]; 5.78 mg/ml ZLC solution,>1000 NTU
same,initial pH,[1]; 5.78 mg/ml ZLC solution,8
same,initial turbidity (NTU),[1]; 5.78 mg/ml ZLC solution,40.1 NTU
same,pH after aging,[1]; 11.56 mg/ml ZLC solution,7.8
same,turbidity after aging (NTU),[1]; 11.56 mg/ml ZLC solution,>1000 NTU
same,initial pH,[1]; 11.56 mg/ml ZLC solution,7.8
same,initial turbidity (NTU),[1]; 11.56 mg/ml ZLC solution,14.8 NTU
same,pH after aging,[1]; 23.125 mg/ml ZLC solution,7.7
same,turbidity after aging (NTU),[1]; 23.125 mg/ml ZLC solution,247.4 NTU
same,initial pH,[1]; 23.125 mg/ml ZLC solution,7.7
same,initial turbidity (NTU),[1]; 23.125 mg/ml ZLC solution,0.7 NTU
same,pH after aging,[1]; 46.25 mg/ml ZLC solution,7.4
same,turbidity after aging (NTU),[1]; 46.25 mg/ml ZLC solution,2.8 NTU
same,initial pH,[1]; 46.25 mg/ml ZLC solution,7.4
same,initial turbidity (NTU),[1]; 46.25 mg/ml ZLC solution,1.5 NTU
same,pH after aging,[1]; 92.5 mg/ml ZLC solution,7
same,turbidity after aging (NTU),[1]; 92.5 mg/ml ZLC solution,2.6 NTU
same,initial pH,[1]; 92.5 mg/ml ZLC solution,7
same,initial turbidity (NTU),[1]; 92.5 mg/ml ZLC solution,2.8 NTU
same,pH after aging,[1]; 185 mg/ml ZLC solution,6.8
same,turbidity after aging (NTU),[1]; 185 mg/ml ZLC solution,4.1 NTU
same,initial pH,[1]; 185 mg/ml ZLC solution,6.8
same,initial turbidity (NTU),[1]; 185 mg/ml ZLC solution,4.7 NTU
same,stability of the complex upon dilution with water,"[1]; precipitates of 8×, 16× and 32× diluted solutions identified as crystalline ZnO by PXRD",disassociates upon dilution
same,protein flocculation,[2]; BSA as protein,ability to flocculate proteins
same,Turbidity (NTU),[2]; [3],357 NTU
same,observation,[2]; [3],slightly cloudy
same,pH,[2]; [3],8
same,Turbidity (NTU),[2]; [4],>1000 NTU
same,observation,[2]; [4],very cloudy
same,pH,[2]; [4],8.2
same,Turbidity (NTU),[2]; [5],>1000 NTU
same,observation,[2]; [5],very cloudy
same,pH,[2]; [5],8
